Laboratory results reported in PubChem BioAssay AID308 (DTP/NCI, 2004).
“And” between values parts separate entries of the source, which are not always exact repeats. Equal entries are not always repeated. Inconclusive results and toxic doses are left out.

Test system: BDF1 mice, L1210 6-MP/6-TG resistant leukemia ip, survival T/C
Experiment: NCI In Vivo Anticancer Drug Screen. Data for tumor model L1210 Leukemia resistant to 6-MP and 6-Thioguanine; NSC 755, NSC 752 (intraperitoneal) in B6D2F1 (BDF1) mice
Settings: endpoint: mean survival time, higher = longer survival
Description: The antitumor activity of compounds was measured in mice bearing transplantable tumors. Survival or tumor size were measured and the results are expressed as the measurement made in the treated group (T) divided by the measurement made in the vehicle treated control group (C). The tumor model used in this assay is L1210 Leukemia resistant to 6-MP and 6-Thioguanine; NSC 755, NSC 752 (intraperitoneal) in B6D2F1 (BDF1) mice

In the case of `CC(=O)OCC1OC(n2cnc3c(=S)nc(N)[nH]c32)C(OC(C)=O)C1OC(C)=O` (configuration not stated), the T/C (dose: 1.0 mg/kg/injection, schedule: Q01DX Z (ip), vehicle: other) is reported as 89 % of control, the T/C (dose: 2.0 mg/kg/injection, schedule: Q01DX Z (ip), vehicle: other) is reported as 89 % of control and the T/C (dose: 4.0 mg/kg/injection, schedule: Q01DX Z (ip), vehicle: other) is reported as 101 % of control. For the same compound, the T/C (dose: 6.0 mg/kg/injection, schedule: Q01DX Z (ip), vehicle: other) was 92 % of control, the T/C (dose: 12.5 mg/kg/injection, schedule: Q01DX Z (ip), vehicle: other) was 98 % of control and the T/C (dose: 25.0 mg/kg/injection, schedule: Q01DX Z (ip), vehicle: other) was 93 % of control.

`CSc1ncnc2c1ncn2C1OC(CO)C(O)C1O` (configuration not stated) was tested, and the T/C (dose: 2.0 mg/kg/injection, schedule: Q01DX Z (ip), vehicle: saline) was 117 % of control, the T/C (dose: 3.0 mg/kg/injection, schedule: Q01DX015 (ip), vehicle: saline) was 119 % of control and 121 % of control and the T/C (dose: 4.0 mg/kg/injection, schedule: Q01DX Z (oral), vehicle: saline) was 100 % of control. The T/C (dose: 7.0 mg/kg/injection, schedule: Q01DX015 (ip), vehicle: saline) was 158 % of control, the T/C (dose: 7.0 mg/kg/injection, schedule: Q01DX Z (ip), vehicle: saline) was 151 % of control and the T/C (dose: 8.0 mg/kg/injection, schedule: Q01DX Z (ip), vehicle: saline) was 168 % of control. The T/C (dose: 8.0 mg/kg/injection, schedule: Q01DX Z (oral), vehicle: saline) was 107 % of control, the T/C (dose: 10.0 mg/kg/injection, schedule: Q## X032 (ip), vehicle: saline) was 114 % of control and the T/C (dose: 12.0 mg/kg/injection, schedule: Q01DX001 (ip), vehicle: alkali diluted with saline) was 102 % of control and 103 % of control. The T/C (dose: 12.0 mg/kg/injection, schedule: Q01DX Z (ip), vehicle: saline) was 175 % of control, the T/C (dose: 12.0 mg/kg/injection, schedule: Q01DX Z (oral), vehicle: saline) was 100 % of control and the T/C (dose: 13.0 mg/kg/injection, schedule: Q02DX008 (ip), vehicle: saline) was 122 % of control. The T/C (dose: 13.0 mg/kg/injection, schedule: Q## X004 (ip), vehicle: saline) was 108 % of control, the T/C (dose: 16.0 mg/kg/injection, schedule: Q01DX015 (ip), vehicle: saline) was 152 % of control and 166 % of control and the T/C (dose: 16.0 mg/kg/injection, schedule: Q01DX Z (ip), vehicle: clinical formulation) was 123 % of control. For the same compound, the T/C (dose: 16.0 mg/kg/injection, schedule: Q01DX Z (ip), vehicle: saline) was 191 % of control, the T/C (dose: 16.0 mg/kg/injection, schedule: Q01DX Z (oral), vehicle: saline) was 111 % of control and the T/C (dose: 18.0 mg/kg/injection, schedule: Q01DX001 (ip), vehicle: alkali diluted with saline) was 116 % of control and 103 % of control. For the same compound, the T/C (dose: 18.0 mg/kg/injection, schedule: Q01DX001 (ip), vehicle: saline) was 112 % of control and 98 % of control, the T/C (dose: 21.0 mg/kg/injection, schedule: Q01DX015 (ip), vehicle: saline) was 159 % of control and the T/C (dose: 24.0 mg/kg/injection, schedule: Q01DX015 (ip), vehicle: saline) was 163 % of control. For the same compound, the T/C (dose: 24.0 mg/kg/injection, schedule: Q01DX Z (ip), vehicle: saline) was 119 % of control, the T/C (dose: 24.0 mg/kg/injection, schedule: Q01DX Z (oral), vehicle: saline) was 113 % of control and 120 % of control and the T/C (dose: 24.0 mg/kg/injection, schedule: Q## X032 (ip), vehicle: saline) was 150 % of control. The T/C (dose: 26.0 mg/kg/injection, schedule: Q01DX001 (ip), vehicle: alkali diluted with saline) was 118 % of control and 111 % of control, the T/C (dose: 26.0 mg/kg/injection, schedule: Q01DX001 (ip), vehicle: saline) was 104 % of control and the T/C (dose: 27.0 mg/kg/injection, schedule: Q01DX001 (ip), vehicle: saline) was 114 % of control and 108 % of control. The T/C (dose: 32.0 mg/kg/injection, schedule: Q01DX Z (ip), vehicle: saline) was 121 % of control, the T/C (dose: 32.0 mg/kg/injection, schedule: Q01DX Z (oral), vehicle: saline) was 120 % of control and 106 % of control and the T/C (dose: 32.0 mg/kg/injection, schedule: Q## X032 (ip), vehicle: saline) was 152 % of control and 158 % of control. For the same compound, the T/C (dose: 36.0 mg/kg/injection, schedule: Q01DX015 (ip), vehicle: saline) was 114 % of control, the T/C (dose: 37.0 mg/kg/injection, schedule: Q01DX Z (ip), vehicle: saline) was 95 % of control and the T/C (dose: 40.0 mg/kg/injection, schedule: Q01DX001 (ip), vehicle: alkali diluted with saline) was 119 % of control and 106 % of control. The T/C (dose: 40.0 mg/kg/injection, schedule: Q01DX001 (ip), vehicle: saline) was 117 % of control and 98 % of control and 108 % of control, the T/C (dose: 44.0 mg/kg/injection, schedule: Q02DX008 (ip), vehicle: saline) was 158 % of control and the T/C (dose: 45.0 mg/kg/injection, schedule: Q01DX015 (ip), vehicle: saline) was 92 % of control and 94 % of control. The T/C (dose: 45.0 mg/kg/injection, schedule: Q## X004 (ip), vehicle: saline) was 157 % of control, the T/C (dose: 48.0 mg/kg/injection, schedule: Q01DX Z (ip), vehicle: saline) was 96 % of control and the T/C (dose: 48.0 mg/kg/injection, schedule: Q01DX Z (oral), vehicle: saline) was 95 % of control and 103 % of control. The T/C (dose: 48.0 mg/kg/injection, schedule: Q## X032 (ip), vehicle: saline) was 164 % of control and 171 % of control, the T/C (dose: 50.0 mg/kg/injection, schedule: Q01DX Z (ip), vehicle: saline) was 90 % of control and the T/C (dose: 54.0 mg/kg/injection, schedule: Q01DX001 (ip), vehicle: saline) was 109 % of control. The T/C (dose: 60.0 mg/kg/injection, schedule: Q01DX001 (ip), vehicle: saline) was 119 % of control and 107 % of control, the T/C (dose: 61.0 mg/kg/injection, schedule: Q01DX001 (ip), vehicle: alkali diluted with saline) was 113 % of control and the T/C (dose: 61.0 mg/kg/injection, schedule: Q01DX001 (ip), vehicle: saline) was 113 % of control. The T/C (dose: 67.0 mg/kg/injection, schedule: Q## X004 (ip), vehicle: saline) was 162 % of control, the T/C (dose: 72.0 mg/kg/injection, schedule: Q## X032 (ip), vehicle: saline) was 165 % of control and 166 % of control and the T/C (dose: 81.0 mg/kg/injection, schedule: Q01DX001 (ip), vehicle: saline) was 124 % of control. For the same compound, the T/C (dose: 90.0 mg/kg/injection, schedule: Q01DX001 (ip), vehicle: saline) was 109 % of control, the T/C (dose: 92.0 mg/kg/injection, schedule: Q01DX001 (ip), vehicle: alkali diluted with saline) was 123 % of control and 111 % of control and the T/C (dose: 100.0 mg/kg/injection, schedule: Q02DX008 (ip), vehicle: saline) was 99 % of control. The T/C (dose: 100.0 mg/kg/injection, schedule: Q## X004 (ip), vehicle: saline) was 170 % of control, the T/C (dose: 108.0 mg/kg/injection, schedule: Q## X032 (ip), vehicle: saline) was 116 % of control and 98 % of control and the T/C (dose: 138.0 mg/kg/injection, schedule: Q01DX001 (ip), vehicle: alkali diluted with saline) was 116 % of control. The T/C (dose: 138.0 mg/kg/injection, schedule: Q01DX001 (ip), vehicle: saline) was 118 % of control, the T/C (dose: 150.0 mg/kg/injection, schedule: Q## X004 (ip), vehicle: saline) was 164 % of control and the T/C (dose: 207.0 mg/kg/injection, schedule: Q01DX001 (ip), vehicle: alkali diluted with saline) was 119 % of control and 124 % of control. The T/C (dose: 300.0 mg/kg/injection, schedule: Q01DX001 (ip), vehicle: saline) was 111 % of control.

In the case of `N#[N+]c1cnc([O-])[nH]c1=O`, the T/C (dose: 5.0 mg/kg/injection, schedule: Q01DX Z (ip), vehicle: alkali diluted with saline) is reported as 166 % of control, the T/C (dose: 7.5 mg/kg/injection, schedule: Q01DX Z (ip), vehicle: alkali diluted with saline) is reported as 177 % of control and the T/C (dose: 10.0 mg/kg/injection, schedule: Q01DX Z (ip), vehicle: alkali diluted with saline) is reported as 150 % of control. For the same compound, the T/C (dose: 15.0 mg/kg/injection, schedule: Q01DX Z (ip), vehicle: alkali diluted with saline) was 95 % of control.

For `CN(N=O)C(=O)NCCSc1ncnc2nc[nH]c12`, the T/C (dose: 88.0 mg/kg/injection, schedule: Q01DX015 (ip), vehicle: other) was 104 % of control, the T/C (dose: 132.0 mg/kg/injection, schedule: Q01DX015 (ip), vehicle: other) was 108 % of control and the T/C (dose: 200.0 mg/kg/injection, schedule: Q01DX015 (ip), vehicle: other) was 108 % of control. The T/C (dose: 300.0 mg/kg/injection, schedule: Q01DX015 (ip), vehicle: other) was 102 % of control.
